Experimental data published in US12215140B2, “Method of stabilizing protein contained in specimen and solution for stabilizing protein contained in specimen” (EIKEN KAGAKU KABUSHIKI KAISHA, priority 2018, dated 2025).
Several values for one entry are separate records, joined by “and”; a condition that tells them apart may be missing. Equal entries are not always repeated.

Target: hemoglobin (Homo sapiens, UniProt P68871+P69905)
Test: Stability of hemoglobin in samples preserved at 37° C. in preservation solution containing no haptoglobin, Hb measured by latex agglutination method (Examples 8, 9 and Table 10)
Conditions: for Hb concentration / Recovery ratio with respect to Hb after 0 days: no phenylboronic acid, sugar 100 mmol/L; for recovery ratio of hemoglobin in the sample: sugar further added to phenylboronic acid 0.5 mmol/L, no haptoglobin, Feces 1, Feces 2, Feces 3
Description: Preservation solutions were prepared with the addition of 40 mmol/L HEPES (pH 6.8), 0.1% BSA, 0.1% NaN3, and 0 to 2.5 mmol/L phenylboronic acid. […] Samples obtained by adding hemoglobin-added fecal specimens to the preservation solutions so that the fecal concentration would be 0.5% were preserved at 37° C. for 0, 16, 38, and 62 hours. The fecal specimens were added with hemoglobin having an amount such that the hemoglobin concentration in the samples would be about 300 μg/L. Instead of the fecal specimens to which hemoglobin was added, samples containing no fecal specimens, in which hemoglobin was added to the preservation solutions so that the hemoglobin concentration in the samples would be 300 μg/L, were similarly preserved. The hemoglobin (Hb) concentrations (μg/L) in the preserved samples were measured by the latex agglutination method using the same measurement reagent and measurement device as in Example 1.
The concentration of phenylboronic acid in the preservation solutions of Example 8 was fixed to 0.5 mmol/L, preservation solutions to which sorbitol or sucrose was further added at 10 to 250 mmol/L or trehalose, glucose, fructose, or mannitol was further added at 50 to 100 mmol/L were prepared, and testing was conducted in the same manner as in Example 8. In addition, preservation solutions to which the phenylboronic acid was added but no sugar was added were prepared, preservation solutions to which the phenylboronic acid and sugar were not added were prepared for the comparative examples, and testing was conducted in the same manner.
For comparative examples, preservation solutions to which no arylboronic acid was added were prepared, and testing was conducted in the same manner.

Sequence of hemoglobin (P69905 2-142): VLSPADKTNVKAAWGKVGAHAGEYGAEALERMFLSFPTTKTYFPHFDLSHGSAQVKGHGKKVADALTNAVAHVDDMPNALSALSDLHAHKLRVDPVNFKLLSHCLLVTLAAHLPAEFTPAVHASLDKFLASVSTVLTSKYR
Sequence of hemoglobin (P68871 2-147): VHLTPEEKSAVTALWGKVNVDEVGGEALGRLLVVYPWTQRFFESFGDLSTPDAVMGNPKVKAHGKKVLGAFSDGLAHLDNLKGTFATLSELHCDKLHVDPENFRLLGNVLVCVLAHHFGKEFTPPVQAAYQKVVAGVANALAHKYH

SMILES | Hb concentration (Feces 1, 0 h at 37° C.) | Recovery ratio with respect to Hb after 0 days (Feces 1, 0 h at 37° C.) | Hb concentration (Feces 1, 16 h at 37° C.) | Recovery ratio with respect to Hb after 0 days (Feces 1, 16 h at 37° C.) | Hb concentration (Feces 1, 38 h at 37° C.) | Recovery ratio with respect to Hb after 0 days (Feces 1, 38 h at 37° C.) | Hb concentration (Feces 1, 62 h at 37° C.) | Recovery ratio with respect to Hb after 0 days (Feces 1, 62 h at 37° C.) | Hb concentration (Feces 2, 0 h at 37° C.) | Recovery ratio with respect to Hb after 0 days (Feces 2, 0 h at 37° C.) | Hb concentration (Feces 2, 16 h at 37° C.) | Recovery ratio with respect to Hb after 0 days (Feces 2, 16 h at 37° C.) | Hb concentration (Feces 2, 38 h at 37° C.) | Recovery ratio with respect to Hb after 0 days (Feces 2, 38 h at 37° C.) | Hb concentration (Feces 2, 62 h at 37° C.) | Recovery ratio with respect to Hb after 0 days (Feces 2, 62 h at 37° C.) | Hb concentration (No feces, 0 h at 37° C.) | Recovery ratio with respect to Hb after 0 days (No feces, 0 h at 37° C.) | Hb concentration (No feces, 16 h at 37° C.) | Recovery ratio with respect to Hb after 0 days (No feces, 16 h at 37° C.) | further results
O=C(CO)[C@@H](O)[C@H](O)[C@H](O)CO [Fructose, fructose] | 281 µg/L | 100% | 134 µg/L | 48% | 35 µg/L | 12% | 0 µg/L | 0% | 268 µg/L | 100% | 60 µg/L | 22% | 1 µg/L | 0% | 0 µg/L | 0% | 284 µg/L | 100% | 246 µg/L | 86% | Hb concentration (Feces 3, 0 h at 37° C.): 263 µg/L and 269 µg/L; Recovery ratio with respect to Hb after 0 days (Feces 3, 0 h at 37° C.): 100%; Hb concentration (Feces 3, 16 h at 37° C.): 51 µg/L and 57 µg/L; Recovery ratio with respect to Hb after 0 days (Feces 3, 16 h at 37° C.): 19% and 21%; Hb concentration (Feces 3, 38 h at 37° C.): 0 µg/L; Recovery ratio with respect to Hb after 0 days (Feces 3, 38 h at 37° C.): 0%; Hb concentration (Feces 3, 62 h at 37° C.): 0 µg/L; Recovery ratio with respect to Hb after 0 days (Feces 3, 62 h at 37° C.): 0%; Hb concentration (No feces, 38 h at 37° C.): 233 µg/L; Recovery ratio with respect to Hb after 0 days (No feces, 38 h at 37° C.): 82%; Hb concentration (No feces, 62 h at 37° C.): 230 µg/L; Recovery ratio with respect to Hb after 0 days (No feces, 62 h at 37° C.): 81%; recovery ratio of hemoglobin in the sample: further improved
OC[C@H]1O[C@@](CO)(O[C@H]2O[C@H](CO)[C@@H](O)[C@H](O)[C@H]2O)[C@@H](O)[C@@H]1O [Sucrose, sucrose] | 271 µg/L | 100% | 137 µg/L | 51% | 45 µg/L | 16% | 10 µg/L | 4% | 255 µg/L | 100% | 57 µg/L | 22% | 3 µg/L | 1% | 0 µg/L | 0% | 278 µg/L | 100% | 245 µg/L | 88% | Hb concentration (Feces 3, 0 h at 37° C.): 257 µg/L; Recovery ratio with respect to Hb after 0 days (Feces 3, 0 h at 37° C.): 100%; Hb concentration (Feces 3, 16 h at 37° C.): 67 µg/L; Recovery ratio with respect to Hb after 0 days (Feces 3, 16 h at 37° C.): 26%; Hb concentration (Feces 3, 38 h at 37° C.): 0 µg/L; Recovery ratio with respect to Hb after 0 days (Feces 3, 38 h at 37° C.): 0%; Hb concentration (Feces 3, 62 h at 37° C.): 0 µg/L; Recovery ratio with respect to Hb after 0 days (Feces 3, 62 h at 37° C.): 0%; Hb concentration (No feces, 38 h at 37° C.): 229 µg/L; Recovery ratio with respect to Hb after 0 days (No feces, 38 h at 37° C.): 83%; Hb concentration (No feces, 62 h at 37° C.): 224 µg/L; Recovery ratio with respect to Hb after 0 days (No feces, 62 h at 37° C.): 81%; recovery ratio of hemoglobin in the sample: further improved

Second part, led by results:

Hb concentration (Feces 1, 0 h at 37° C.) | Recovery ratio with respect to Hb after 0 days (Feces 1, 0 h at 37° C.) | Hb concentration (Feces 1, 16 h at 37° C.) | Recovery ratio with respect to Hb after 0 days (Feces 1, 16 h at 37° C.) | Hb concentration (Feces 1, 38 h at 37° C.) | Recovery ratio with respect to Hb after 0 days (Feces 1, 38 h at 37° C.) | Hb concentration (Feces 1, 62 h at 37° C.) | Recovery ratio with respect to Hb after 0 days (Feces 1, 62 h at 37° C.) | Hb concentration (Feces 2, 0 h at 37° C.) | Recovery ratio with respect to Hb after 0 days (Feces 2, 0 h at 37° C.) | Hb concentration (Feces 2, 16 h at 37° C.) | Recovery ratio with respect to Hb after 0 days (Feces 2, 16 h at 37° C.) | Hb concentration (Feces 2, 38 h at 37° C.) | Recovery ratio with respect to Hb after 0 days (Feces 2, 38 h at 37° C.) | Hb concentration (Feces 2, 62 h at 37° C.) | Recovery ratio with respect to Hb after 0 days (Feces 2, 62 h at 37° C.) | Hb concentration (No feces, 0 h at 37° C.) | Recovery ratio with respect to Hb after 0 days (No feces, 0 h at 37° C.) | Hb concentration (No feces, 16 h at 37° C.) | Recovery ratio with respect to Hb after 0 days (No feces, 16 h at 37° C.) | SMILES | further results
276 µg/L | 100% | 131 µg/L | 48% | 29 µg/L | 10% | 1 µg/L | 0% | 266 µg/L | 100% | 55 µg/L | 21% | 1 µg/L | 0% | 0 µg/L | 0% | 281 µg/L | 100% | 254 µg/L | 91% | OC[C@@H](O)[C@@H](O)[C@H](O)[C@H](O)CO [Mannitol, mannitol] | Hb concentration (No feces, 38 h at 37° C.): 237 µg/L; Recovery ratio with respect to Hb after 0 days (No feces, 38 h at 37° C.): 84%; Hb concentration (No feces, 62 h at 37° C.): 235 µg/L; Recovery ratio with respect to Hb after 0 days (No feces, 62 h at 37° C.): 84%; recovery ratio of hemoglobin in the sample: further improved
290 µg/L | 100% | 146 µg/L | 50% | 39 µg/L | 13% | 1 µg/L | 0% | 275 µg/L | 100% | 61 µg/L | 22% | 0 µg/L | 0% | 0 µg/L | 0% | 300 µg/L | 100% | 263 µg/L | 88% | OC[C@@H](O)[C@@H](O)[C@H](O)[C@@H](O)CO [Sorbitol, sorbitol] | Hb concentration (Feces 3, 0 h at 37° C.): 277 µg/L; Recovery ratio with respect to Hb after 0 days (Feces 3, 0 h at 37° C.): 100%; Hb concentration (Feces 3, 16 h at 37° C.): 49 µg/L; Recovery ratio with respect to Hb after 0 days (Feces 3, 16 h at 37° C.): 18%; Hb concentration (Feces 3, 38 h at 37° C.): 1 µg/L; Recovery ratio with respect to Hb after 0 days (Feces 3, 38 h at 37° C.): 0%; Hb concentration (Feces 3, 62 h at 37° C.): 0 µg/L; Recovery ratio with respect to Hb after 0 days (Feces 3, 62 h at 37° C.): 0%; Hb concentration (No feces, 38 h at 37° C.): 245 µg/L; Recovery ratio with respect to Hb after 0 days (No feces, 38 h at 37° C.): 82%; Hb concentration (No feces, 62 h at 37° C.): 235 µg/L; Recovery ratio with respect to Hb after 0 days (No feces, 62 h at 37° C.): 79%; recovery ratio of hemoglobin in the sample: further improved
268 µg/L | 100% | 133 µg/L | 50% | 41 µg/L | 15% | 8 µg/L | 3% | 254 µg/L | 100% | 54 µg/L | 21% | 1 µg/L | 0% | 0 µg/L | 0% | 280 µg/L | 100% | 241 µg/L | 86% | OC[C@H]1O[C@H](O[C@H]2O[C@H](CO)[C@@H](O)[C@H](O)[C@H]2O)[C@H](O)[C@@H](O)[C@@H]1O [Trehalose, trehalose] | Hb concentration (Feces 3, 0 h at 37° C.): 260 µg/L; Recovery ratio with respect to Hb after 0 days (Feces 3, 0 h at 37° C.): 100%; Hb concentration (Feces 3, 16 h at 37° C.): 48 µg/L; Recovery ratio with respect to Hb after 0 days (Feces 3, 16 h at 37° C.): 19%; Hb concentration (Feces 3, 38 h at 37° C.): 0 µg/L; Recovery ratio with respect to Hb after 0 days (Feces 3, 38 h at 37° C.): 0%; Hb concentration (Feces 3, 62 h at 37° C.): 0 µg/L; Recovery ratio with respect to Hb after 0 days (Feces 3, 62 h at 37° C.): 0%; Hb concentration (No feces, 38 h at 37° C.): 228 µg/L; Recovery ratio with respect to Hb after 0 days (No feces, 38 h at 37° C.): 81%; Hb concentration (No feces, 62 h at 37° C.): 219 µg/L; Recovery ratio with respect to Hb after 0 days (No feces, 62 h at 37° C.): 78%; recovery ratio of hemoglobin in the sample: further improved
